Values after ≈ are worked out from the molar mass of the structure shown. Values joined by “and” are separate entries in the source; they are usually repeats but may differ in a detail not shown here. Identical values can stand only once. “Also recorded” adds a separate entry of the source. Like-named read-outs stand apart in the source and are kept apart here.
Key:
[1] = system: M. tuberculosis strain Erdman; experiment: Modified rapid (acute) murine model of infection; type: in vivo, Mycobacterium tuberculosis
Mtb FtsZ [2] = molecular target: T1, Mtb FtsZ (Mycobacterium tuberculosis, UniProt P9WN95); settings: earlier work of the authors; no reference given; cited from earlier work
M. tuberculosis H37Rv [3] = experiment: Microplate Alamar Blue assay (MABA) MIC; type: cell-based; settings: Mycobacterium tuberculosis
M. tuberculosis TN587 = experiment: Microplate Alamar Blue assay (MABA) MIC; type: cell-based; settings: Mycobacterium tuberculosis
M. tuberculosis NHN382 = experiment: Microplate Alamar Blue assay (MABA) MIC; type: cell-based; settings: Mycobacterium tuberculosis
M. tuberculosis W210 = experiment: Microplate Alamar Blue assay (MABA) MIC; type: cell-based; settings: Mycobacterium tuberculosis
M. tuberculosis NHN20 = experiment: Microplate Alamar Blue assay (MABA) MIC; type: cell-based; settings: Mycobacterium tuberculosis
Mtb FtsZ [4] = molecular target: T1, Mtb FtsZ; experiment: Transmission electron microscopy of FtsZ polymerization; type: biochemical, M. tuberculosis; settings: FtsZ 5 µM, GTP 25 µM
M. tuberculosis H37Rv [5] = experiment: Time-dose growth (OD600 nm) and kill (CFU) curves; type: cell-based, Mycobacterium tuberculosis
[6] = 100 ng/mL
Description: (§1) Blood was collected from animals using lithium heparin as anticoagulant, in the Animal Research & Welfare Domain at Disposition, Safety & Animal Research Montpellier (371 rue du Pr. J. Blayac, 34184 Montpellier Cedex 04, France) or vendors such as Charles River. Human plasma using lithium heparin as anticoagulant was provided by the EFS (Etablissement Français du Sang) of Montpellier, France. Plasma was spiked with the compound in order to obtain a final drug concentration of 100 ng/mL (expressed as non-salified compound). The spiked plasma (dedicated to C1h and C4h) was then incubated at 37°C for 1 h and 4 h. Plasma samples were analyzed by LC-MS/MS following protein precipitation. The limit of quantification for compounds was 10 ng/mL. Chromatographic conditions for LC analysis: 10 µL of the sample was injected to Luna Phenomenex C8 (50 mm×2.0 mm, 3 µm), Solvent A: ammonium acetate (0.15 g)/formic acid (2 mL)/HPLC water up to 1000 mL. […] MS/MS condition used for detection: Finnigan TSQ Quantum disco instrument, Excalibur version 2.0 acquisition system, ESI positive ion ionization mode. The mean percent of difference between C1h or C4h and C0 concentrations was calculated.
M%D (%) = 100 × [(C1h or C4h)–C0]/C0
(§2) The compounds were considered as stable if the mean percent of difference between C4h and C0 concentrations was less than 20%.

M. tuberculosis H37Rv [7] = settings: lead selection from SAR studies; cited from earlier work
[8] = 100 ng/mL; remark: listed apart in the source
Description: as §1
M%D (%) = 100 × [(C1h or C4h)–C0]/C0
as §2

[9] = 5 µM, 1 mg/mL microsomal protein, NADPH, 20 min
Description: (§3) The flavin-containing monooxygenases (FMO)-dependent reactions were run in the presence of bovine serum albumin (BSA, 0.1%) for the duration of 0 and 20 min (with or without microsomal proteins and/or cofactors). […] Following protein precipitation with acetonitrile and their removal by centrifugation, supernatant fluids were analyzed by LC/MS-MS.
(§4) Thermo Finnigan TSQ Quantum Ultra instrument, ESI positive ion ionization mode. Each compound is studied in duplicates. Results are expressed in percentage of lability (or total metabolism).
(§5) Total metabolism = [1– (UC1 Peak Area)/(UC2 Peak Area)] × 100.
(§6) UCn = Unchanged Compound in condition n;
(§7) n = 1: incubation in the presence of NADPH cofactor after T = 20 min.
(§8) n = 2: incubation without cofactor at T = 0 min.

[10] = 5 µM, 1 mg/mL microsomal protein, NADPH, 20 min; remark: listed apart in the source
Description: as §3, §4, §5, §6, §7, §8

[11] = system: M. tuberculosis clinical isolates; settings: determined and reported; cited from earlier work

T1 sequence (P9WN95 whole entry, looked up): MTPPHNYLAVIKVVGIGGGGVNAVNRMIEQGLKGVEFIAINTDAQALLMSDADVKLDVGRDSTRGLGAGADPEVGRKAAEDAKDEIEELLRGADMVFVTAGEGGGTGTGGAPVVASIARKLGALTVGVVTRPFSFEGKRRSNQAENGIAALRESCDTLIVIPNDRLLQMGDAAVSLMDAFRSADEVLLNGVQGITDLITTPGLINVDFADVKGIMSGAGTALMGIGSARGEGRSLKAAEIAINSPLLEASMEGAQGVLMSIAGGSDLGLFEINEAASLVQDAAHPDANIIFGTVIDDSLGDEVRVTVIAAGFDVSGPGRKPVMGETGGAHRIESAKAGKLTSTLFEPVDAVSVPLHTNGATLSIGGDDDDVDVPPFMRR

SMILES: NNC(=O)c1ccncc1 [INH, isoniazid, reference compound]
- CFU counts in the lung and spleen ([1]; IP 20 mg/kg qd, control drug): below the level of detection

SMILES: CCCCOC(=O)Nc1cc2nc(C3CCCCC3)[nH]c2cc1N(CC)CC [SB-P3G2]
- Inhibition of FtsZ polymerization (Mtb FtsZ [2]): inhibit FtsZ polymerization in a dose dependent manner

SMILES: CN(C)c1cc2[nH]c(C3CCCCC3)nc2cc1NC(=O)c1ccc(OC(F)(F)F)cc1 [SB-P17G-A20]
- MIC (M. tuberculosis H37Rv [3]): 0.16 µg/mL (≈ 0.358 µM)
- MIC (M. tuberculosis TN587): 0.16 µg/mL (≈ 0.358 µM)
- MIC (M. tuberculosis NHN382): 0.16 µg/mL (≈ 0.358 µM)
- MIC (M. tuberculosis W210): 0.16 µg/mL (≈ 0.358 µM)
- MIC (M. tuberculosis NHN20): 0.16 µg/mL (≈ 0.358 µM)
- Effect on FtsZ polymers (TEM) (Mtb FtsZ [4]; 40 µM compound): the length, density and aggregation was visibly reduced
- Effect on FtsZ polymers (TEM) (Mtb FtsZ [4]; 80 µM compound): dispersed FtsZ polymers are observed
- Concentration that steadily reduced bacterial viability (M. tuberculosis H37Rv [5]; CFU plating, day 0, 2, 4, 6): 0.08 µg/mL
- Killing characteristics (M. tuberculosis H37Rv [5]; growth curves at various concentrations): concentration-dependent inhibitor with sub-MIC inhibitory characteristics
- Lowest concentration at which bacterial growth was reduced (M. tuberculosis H37Rv [5]; in some cases): 0.125 X MIC
- Reduction in the bacterial load in the lungs ([1]; C57BL/6-Ifngtm1ts mice, 50 mg/kg IP bid, days 5 to 14 post-infection, vs infected controls): 1.73±0.24 log10 CFU
- Reduction in the bacterial load in the spleen ([1]; C57BL/6-Ifngtm1ts mice, 50 mg/kg IP bid, days 5 to 14 post-infection, vs infected controls, 50 mg/kg): 2.68 log10 CFU and 2.68±0.48 log10 CFU
- Plasma Stability (% hydrolysis) Human (4 h) [6]: 0.1%
- MIC (M. tuberculosis H37Rv [7]): 0.16 µg/mL (≈ 0.358 µM)
- Plasma Stability (% hydrolysis) Mouse (4 h) [8]: 24.4%
- Liver Microsome Lability Human [9]: 39%
- Liver Microsome Lability Mouse [10]: 45%

SMILES: CCCCOC(=O)Nc1cc2nc(C3CCCCC3)[nH]c2cc1N(C)C [SB-P17G-C2]
- Reduction in the bacterial load in the lungs or spleen ([1]; acute mouse model, data not shown): no significant reduction; also recorded: did not significantly reduce the bacterial load in the lungs or spleen
- Plasma Stability (% hydrolysis) Human (4 h) [6]: 6.1%
- MIC (M. tuberculosis H37Rv [7]): 0.06 µg/mL (≈ 0.167 µM)
- Liver Microsome Lability Human [9]: 90%
- Liver Microsome Lability Mouse [10]: 96%
- MIC values against clinical isolates [11]: 0.06 to 0.13 µg/mL
